Data on 44 compounds can be found in patent publication US4393225A, “AI-77 Compounds and pharmaceutically acceptable salts thereof” (Asahi Kasei Kogyo Kabushiki Kaisha, priority 1979, dated 1983).

The test system of one assay is ulcer. In words: Anti-ulcer test (restraint and water immersion ulcer in rats, i.p.). The format is in vivo, Male Wistar rats. To be noted: Rattus norvegicus, ip, read-out: % Inhibition of Ulcer. The essentials:
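Male Wistar rats (~150 g), fasted 24 h, dosed i.p. with compound in physiological saline; 1 h later restrained and immersed to xiphisternum in 21 °C water for 6 h. Stomachs examined microscopically, ulcers scored 0–3, and percent inhibition calculated.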
As for `CCCCCOC(C)CCNC(=O)CC(N)C(O)C(O)C(=O)NC(CC(C)C)C1Cc2cccc(O)c2C(=O)O1` (centres unmarked) [VII-1-27], the inhibition in vivo at 25 mg/kg came to 89%.

As for `CCC(=O)OC(C(=O)NC(CC(C)C)C1Cc2cccc(O)c2C(=O)O1)C(O)C(CC(=O)NC)NC(C)=O` (centres unmarked) [VII-29-1], the inhibition in vivo at 25 mg/kg stood at 66%. On to `CCCCCNC(CC(N)=O)C(O)C(O)C(=O)NC(CC(C)C)C1Cc2cccc(O)c2C(=O)O1` (centres unmarked) [VII-10-2], for which the inhibition in vivo at 25 mg/kg is 94%.

Turning to `CC(C)CC(NC(=NC(C)C)C(O)C(O)C(N)CC(=O)O)C1Cc2cccc(O)c2C(=O)O1` (centres unmarked) [Vb-1-41], the inhibition in vivo at 50 mg/kg was found to be 89%.

The same assay, now with this note: Rattus norvegicus, ip; 25 mg/kg i.p.; read-out: % Inhibition of Ulcer.
As to `CCCCNC(=O)CC(N)C(O)C(O)C(=O)NC(CC(C)C)C1Cc2cccc(O)c2C(=O)O1` (centres unmarked) [VII-1-4], the inhibition in vivo at 25 mg/kg stood at 100%. On to `CCCCNC(=O)CC(NC)C(O)C(O)C(=O)NC(CC(C)C)C1Cc2cccc(OCC)c2C(=O)O1` (centres unmarked) [VII-23-2], for which the inhibition in vivo at 25 mg/kg amounted to 66%. Consider `CC(C)CC(NC(=O)C(O)C(O)C(N)CC(=O)NCCN1CCCCC1)C1Cc2cccc(O)c2C(=O)O1` (centres unmarked) [VII-1-46], for which the inhibition in vivo at 25 mg/kg was 94%. For the compound `CC(C)CC(NC(=O)C(O)C(O)C(N)CC(=O)NCc1ccco1)C1Cc2cccc(O)c2C(=O)O1` (centres unmarked) [VII-1-14], the inhibition in vivo at 25 mg/kg stood at 89%. Same read-out and setting: with `CC(C)CCCC(C)CCCC(C)CCCCNC(=O)CC(N)C(O)C(O)C(=O)NC(CC(C)C)C1Cc2cccc(O)c2C(=O)O1` (centres unmarked) [VII-1-36] the figure was 83%; with `CC(C)CC(NC(=O)C(O)C(O)C(N)CC(=O)NCC1CCCO1)C1Cc2cccc(O)c2C(=O)O1` (centres unmarked) [VII-1-15], 89%. The same measure, in the same setting: with `CNC(CC(N)=O)C(O)C(O)C(=O)NC(CC(C)C)C1Cc2cccc(OC(C)=O)c2C(=O)O1` (centres unmarked) [VII-22-1] the figure was 78%; with `CCNC(=O)CC(NCC)C(O)C(OC(=O)CC)C(=O)NC(CC(C)C)C1Cc2cccc(OC)c2C(=O)O1` (centres unmarked) [VII-15-4], 44%. As for `CC(C)CC(NC(=O)C(O)C(O)C(N)CC(=O)NCC1CCCCC1)C1Cc2cccc(O)c2C(=O)O1` (centres unmarked) [VII-1-12], the inhibition in vivo at 25 mg/kg was determined as 94%. For `CCOc1cccc2c1C(=O)OC(C(CC(C)C)NC(=O)C(OC(=O)CC)C(O)C(N)CC(N)=O)C2` (centres unmarked) [VII-6-3], the inhibition in vivo at 25 mg/kg is 66%.

Still in this assay, the particulars now being: Rattus norvegicus, ip; 50 mg/kg i.p.; read-out: % Inhibition of Ulcer.
For `CNC1CC(=O)OC1C(OC(C)=O)C(=O)NC(CC(C)C)C1Cc2cccc(O)c2C(=O)O1` (centres unmarked) [IIIa-28-1], the inhibition in vivo at 50 mg/kg was found to be 66%. On to `CCCCCCCC(=O)OC(C(=O)NC(CC(C)C)C1Cc2cccc(O)c2C(=O)O1)C1C=CC(=O)O1` (centres unmarked) [IVa-1-9], for which the inhibition in vivo at 50 mg/kg was 33%.

Regarding `CC(C)CCc1ccc(C(C)C(=O)NC2CC(=O)OC2C(O)C(=O)NC(CC(C)C)C2Cc3cccc(O)c3C(=O)O2)cc1` (centres unmarked) [IIIa-1-53], the inhibition in vivo at 50 mg/kg amounted to 56%. Same read-out and setting: with `CC(C)CC(NC(=O)C(O)C1C=CC(=O)O1)C1Cc2cccc(OC(=O)C(C)C)c2C(=O)O1` (centres unmarked) [IVa-3-10] the figure was 44%; with `CCCCCCCCCCCCCCCCCC(=O)NC1CC(=O)OC1C(OC(C)=O)C(=O)NC(CC(C)C)C1Cc2cccc(OCC)c2C(=O)O1` (centres unmarked) [IIIa-6-4], 22%. Regarding `CCCCCSCC(=O)NC1CC(=O)OC1C(O)C(=O)NC(CC(C)C)C1Cc2cccc(O)c2C(=O)O1` (centres unmarked) [IIIa-1-45], the inhibition in vivo at 50 mg/kg came out at 66%. Consider `CNC(CC(=O)O)C(O)C(O)C(=N)NC(CC(C)C)C1Cc2cccc(O)c2C(=O)O1` (centres unmarked) [Vb-19-1], for which the inhibition in vivo at 50 mg/kg stood at 100%. Consider `CCCCCCCCCCCCCCCCCC(=O)Oc1cccc2c1C(=O)OC(C(CC(C)C)NC(=O)C(OCCCC)C1OC(=O)CC1NCC)C2` (centres unmarked) [IIIa-26-5], for which the inhibition in vivo at 50 mg/kg was found to be 56%. With `CCOc1cccc2c1C(=O)OC(C(CC(C)C)NC(=O)C(O)C1OC(=O)CC1NC(=O)C1CCCCC1=O)C2` (centres unmarked) [IIIa-5-33], the inhibition in vivo at 50 mg/kg turned out to be 44%. `CC(C)CC(NC(=O)C(O)C1OC(=O)CC1NC(=O)C1CCC=CO1)C1Cc2cccc(O)c2C(=O)O1` (centres unmarked) [IIIa-1-59]: the inhibition in vivo at 50 mg/kg was found to be 66%. On to `CCNC1CC(=O)OC1C(O)C(=O)NC(CC(C)C)C1Cc2cccc(OC(C)=O)c2C(=O)O1` (centres unmarked) [IIIa-21-1], for which the inhibition in vivo at 50 mg/kg came out at 78%.

With `CC(C)CC(NC(=O)C(O)C1OC(=O)CC1NC(=O)CC1CCCCO1)C1Cc2cccc(O)c2C(=O)O1` (centres unmarked) [IIIa-1-24], the inhibition in vivo at 50 mg/kg was 66%. For the compound `CCCCCCCC(=O)NC1CC(=O)OC1C(O)C(=O)NC(CC(C)C)C1Cc2cccc(O)c2C(=O)O1` (centres unmarked) [IIIa-1-9], the inhibition in vivo at 50 mg/kg is 66%. Same read-out and setting: with `CCOc1cccc2c1C(=O)OC(C(CC(C)C)NC(=O)C(O)C1OC(=O)CC1NC(=O)c1cnc3ccc(OC)cc3c1)C2` (centres unmarked) [IIIa-5-30] the figure was 33%; with `CCC(=O)OC(C(=O)NC(CC(C)C)C1Cc2cccc(OC)c2C(=O)O1)C1OC(=O)CC1NC(C)=O` (centres unmarked) [IIIa-6-12], 33%.

For the compound `CCNC1CC(=O)OC1C(OC)C(=O)NC(CC(C)C)C1Cc2cccc(O)c2C(=O)O1` (centres unmarked) [IIIa-25-9], the inhibition in vivo at 50 mg/kg was determined as 66%.

Regarding `CCCCCCCCCCCCCCCCCC(=O)OC(C(=O)NC(CC(C)C)C1Cc2cccc(O)c2C(=O)O1)C1C=CC(=O)O1` (centres unmarked) [IVa-1-11], the inhibition in vivo at 50 mg/kg was 33%. Still for that read-out and setting: with `COc1ccc(COc2cccc3c2C(=O)OC(C(CC(C)C)NC(=O)C(O)C2C=CC(=O)O2)C3)cc1` (centres unmarked) [IVa-4-23] the figure was 33%; with `CCOc1cccc2c1C(=O)OC(C(CC(C)C)NC(=O)C(O)C1OC(=O)CC1NC(=O)Cc1ccccc1)C2` (centres unmarked) [IIIa-5-20], 44%.

For the compound `CC(=O)n1cc(C(=O)NC2CC(=O)OC2C(O)C(=O)NC(CC(C)C)C2Cc3cccc(O)c3C(=O)O2)c2ccccc21` (centres unmarked) [IIIa-1-17], the inhibition in vivo at 50 mg/kg came to 66%.

Take `CCCCCCCCCCCCCCCCCC(=O)NC1CC(=O)OC1C(O)C(=O)NC(CC(C)C)C1Cc2cccc(O)c2C(=O)O1` (centres unmarked) [IIIa-1-11]: the inhibition in vivo at 50 mg/kg was found to be 44%.

For `CCCCCCCCC=CCCCCCCCC(=O)NC1CC(=O)OC1C(OC(C)=O)C(=O)NC(CC(C)C)C1Cc2cccc(OCC)c2C(=O)O1` (centres unmarked) [IIIa-6-5], the inhibition in vivo at 50 mg/kg is 22%. `CC(C)=CCC/C(C)=C/CC/C(C)=C/CCC(=O)NC1CC(=O)OC1C(O)C(=O)NC(CC(C)C)C1Cc2cccc(O)c2C(=O)O1` (centres unmarked) [IIIa-1-67]: the inhibition in vivo at 50 mg/kg worked out at 66%. Consider `CCCCCCCCCCCCCCCCCCOc1cccc2c1C(=O)OC(C(CC(C)C)NC(=O)C(OCCCC)C1OC(=O)CC1N)C2` (centres unmarked) [IIIa-15-3], for which the inhibition in vivo at 50 mg/kg is 44%. The same measure, in the same setting: the figure for `CCNC1CC(=O)OC1C(OC(=O)CC)C(=O)NC(CC(C)C)C1Cc2cccc(O)c2C(=O)O1` (centres unmarked) [IIIa-19-9] is 66%. Same read-out and setting: the figure for `CCOc1cccc2c1C(=O)OC(C(CC(C)C)NC(=O)C(O)C1OC(=O)CC1NC(=O)Cc1ccc3ccccc3c1)C2` (centres unmarked) [IIIa-5-62] is 33%; for `Cc1ccc(C(=O)Oc2cccc3c2C(=O)OC(C(CC(C)C)NC(=O)C(O)C2OC(=O)CC2N)C3)cc1` (centres unmarked) [IIIa-12-7] it is 78%. On to `CCCCCCCCC=CCCCCCCCCOc1cccc2c1C(=O)OC(C(CC(C)C)NC(=O)C(O)C1OC(=O)CC1N)C2` (centres unmarked) [IIIa-13-7], for which the inhibition in vivo at 50 mg/kg was 72%. `C#CC(=O)NC1CC(=O)OC1C(O)C(=O)NC(CC(C)C)C1Cc2cccc(OCC)c2C(=O)O1` (centres unmarked) [IIIa-5-51]: the inhibition in vivo at 50 mg/kg came to 44%.

The same assay, now with this note: rat, in vivo.
With `CC(C)CC(NC(=O)C(O)C(O)C(N)CC(=O)O)C1Cc2cccc(O)c2C(=O)O1` (centres unmarked) [AI-77-B], the “anti-ulcer activity (in words)” value was “high anti-ulcer activity”.
